Among the data in PubChem BioAssay (NCI) are GI50 and TGI values, retold here.

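Five compound concentrations were applied to cells in 96-well plates for 48 hours; endpoints were derived by simple linear interpolation of the resulting dose-response curve. At the GI50, growth is halved. TGI is the concentration that stops growth completely.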 A value given as a limit tells only on which side of the number the result lay.

Among the test systems are MCF7 breast; UACC-62 melanoma; OVCAR-4 ovarian; SF-295 CNS; SF-268 CNS; CCRF-CEM leukemia; HCT-15 colon; PC-3 prostate; ACHN renal; RPMI-8226 leukemia.
Holding throughout (assay): inhibition of tumour cell growth, NCI panel, 48 h

`O=c1c2cc(F)ccc2sc2c(NCCCNCCO)nc3ccccc3c12`: the GI50 in the test with MCF7 breast was 1.41 µM; in the test on UACC-62 melanoma, 1.73 µM; in the test on OVCAR-4 ovarian it was 1.92 µM; with SF-295 CNS, 1.77 µM; in the test with SF-268 CNS, 1.59 µM; in the test with CCRF-CEM leukemia, 2020 nM. Further, the GI50 in the test on HCT-15 colon is 1.63 µM; in the test on PC-3 prostate, 1.7 µM; in the test on ACHN renal it was 1.67 µM; with RPMI-8226 leukemia, 2.08 µM. Besides, the TGI with MCF7 breast was 2.94 µM; with UACC-62 melanoma it was 3.23 µM; with OVCAR-4 ovarian it was 4.05 µM; in the test with SF-295 CNS it was 3.26 µM; with SF-268 CNS, 3.21 µM; in the test on CCRF-CEM leukemia it was 4.76 µM. The TGI in the test on HCT-15 colon is 3.12 µM; with PC-3 prostate, 3.29 µM; with ACHN renal it was 3.03 µM; in the test with RPMI-8226 leukemia it was 4.63 µM.

Consider `C[n+]1c2ccccc2nc2c(N)cc(N)cc21`, for which the GI50 with MCF7 breast is 5.1 µM; in the test on UACC-62 melanoma, 12.9 µM; in the test with OVCAR-4 ovarian it was 5.87 µM; in the test on SF-295 CNS, 3.6 µM; with SF-268 CNS, 0.712 µM; with CCRF-CEM leukemia, 4630 nM. Further, the GI50 in the test with HCT-15 colon is 57.6 µM; with PC-3 prostate, 21.3 µM; in the test with ACHN renal, 45.6 µM; with RPMI-8226 leukemia it was 4.54 µM. The TGI with MCF7 breast is 37.3 µM; in the test on UACC-62 melanoma, 31.7 µM; with OVCAR-4 ovarian, more than 100 µM; in the test on SF-295 CNS it was 31 µM; in the test on SF-268 CNS, 13.6 µM; with CCRF-CEM leukemia, 48.3 µM. Also, the TGI with HCT-15 colon was more than 100 µM; with PC-3 prostate it was more than 100 µM; in the test on ACHN renal, more than 100 µM; in the test with RPMI-8226 leukemia, 33.9 µM.

Take `Oc1cc(-n2cccn2)c(O)cc1-n1cccn1`: the TGI in the test on MCF7 breast was 55.1 µM; with UACC-62 melanoma it was 71.3 µM; with OVCAR-4 ovarian, 36.9 µM; with SF-295 CNS it was 60.2 µM; in the test on SF-268 CNS it was more than 82.5 µM; with CCRF-CEM leukemia, 19.6 µM. In addition, the TGI with HCT-15 colon was 51.6 µM; with PC-3 prostate, 44.8 µM; in the test with ACHN renal, 37.4 µM; in the test on RPMI-8226 leukemia, 72.1 µM.

Turning to `CN1CCN(CCCCCN=c2cc3c(=O)n(CCCCCN4CCN(C)CC4)c(=O)c4c(NCCCCCN5CCN(C)CC5)cc5c(O)n(CCCCCN6CCN(C)CC6)c(=O)c2c5c4-3)CC1`, the GI50 in the test with MCF7 breast is 2.52 µM; in the test on UACC-62 melanoma, 4.19 µM; in the test with OVCAR-4 ovarian, 2.22 µM; in the test on SF-295 CNS, 15.7 µM; in the test with SF-268 CNS it was 2.07 µM; in the test with CCRF-CEM leukemia, 2690 nM. Moreover, the GI50 is more than 100 µM in the test with HCT-15 colon, 3.32 µM with PC-3 prostate, 43.3 µM with ACHN renal and 3.02 µM with RPMI-8226 leukemia. In addition, the TGI in the test on MCF7 breast was determined as 7.41 µM; in the test with UACC-62 melanoma it was 15.7 µM; in the test with OVCAR-4 ovarian, 5.61 µM; in the test with SF-295 CNS, 57.2 µM; in the test on SF-268 CNS, 6.09 µM; in the test on CCRF-CEM leukemia it was 26 µM. The TGI is more than 100 µM in the test on HCT-15 colon, 19.4 µM with PC-3 prostate, more than 100 µM with ACHN renal and 11.3 µM in the test on RPMI-8226 leukemia.

For `FC(F)(F)c1cccc(-c2nn3ncccc3c2-c2ccnc(Nc3ccc4c(c3)OCCO4)n2)c1`, the GI50 is 14.4 µM in the test with MCF7 breast; 15 µM in the test on UACC-62 melanoma; 10.3 µM in the test with OVCAR-4 ovarian; 18.2 µM in the test on SF-295 CNS; 19.4 µM with SF-268 CNS; 511 nM with CCRF-CEM leukemia. Besides, the GI50 in the test with HCT-15 colon is 6.59 µM; with PC-3 prostate it was 10.5 µM; in the test on ACHN renal, 6.42 µM; with RPMI-8226 leukemia, 7.88 µM. Besides, the TGI in the test on MCF7 breast, with UACC-62 melanoma, with OVCAR-4 ovarian, in the test with SF-295 CNS, in the test on SF-268 CNS and with CCRF-CEM leukemia was more than 25 µM in each case. Also, the TGI with HCT-15 colon, with PC-3 prostate, with ACHN renal and with RPMI-8226 leukemia was more than 25 µM throughout.

Consider `CCOC(=O)c1cc2c(cc1Cl)SC(=Nc1ccccc1)N(S(=O)(=O)c1ccc(Br)s1)S2(=O)=O`, for which the GI50 in the test with MCF7 breast is 16.5 µM; in the test on UACC-62 melanoma, 14.4 µM; in the test with OVCAR-4 ovarian, 23.4 µM; with SF-295 CNS, 21.5 µM; in the test on SF-268 CNS, 19.2 µM; with CCRF-CEM leukemia, 4510 nM. Also, the GI50 was 13.5 µM in the test on HCT-15 colon, 14.5 µM in the test on PC-3 prostate, 14.4 µM with ACHN renal and 12.1 µM in the test with RPMI-8226 leukemia. For the same compound, the TGI in the test on MCF7 breast came out at 45.8 µM; in the test with UACC-62 melanoma, 28.1 µM; in the test on OVCAR-4 ovarian, 59.8 µM; in the test on SF-295 CNS, 46.4 µM; in the test on SF-268 CNS it was 46.5 µM; in the test on CCRF-CEM leukemia, 18.8 µM. The TGI in the test with HCT-15 colon came out at 27.1 µM; in the test with PC-3 prostate it was 32.1 µM; in the test with ACHN renal it was 27.5 µM; in the test on RPMI-8226 leukemia, 41.9 µM.

Take `Nc1nc(N)c(CCCCc2ccccc2)c(N)n1`: the TGI in the test on MCF7 breast, with UACC-62 melanoma, in the test on OVCAR-4 ovarian, with SF-295 CNS, with SF-268 CNS and in the test on CCRF-CEM leukemia was more than 100 µM each time. Besides, the TGI in the test on HCT-15 colon, in the test on PC-3 prostate, in the test with ACHN renal and in the test on RPMI-8226 leukemia was more than 100 µM in each case.

As to `O=C1C(OCCOc2ccccc2)=C(OCCOc2ccccc2)C(=O)c2ccccc21`, the GI50 in the test with MCF7 breast was 7.74 µM; in the test with UACC-62 melanoma, 6.79 µM; in the test with OVCAR-4 ovarian, 7.1 µM; with SF-295 CNS, 5.11 µM; with SF-268 CNS, 6.31 µM; in the test on CCRF-CEM leukemia it was more than 100000 nM. The GI50 is 3.14 µM in the test with HCT-15 colon, 17.2 µM in the test on PC-3 prostate, 5.09 µM in the test on ACHN renal and more than 100 µM in the test with RPMI-8226 leukemia. Further, the TGI in the test with MCF7 breast, in the test on UACC-62 melanoma, with OVCAR-4 ovarian, in the test on SF-295 CNS, in the test on SF-268 CNS and in the test on CCRF-CEM leukemia was more than 100 µM throughout. Besides, the TGI in the test with HCT-15 colon, in the test with PC-3 prostate, with ACHN renal and with RPMI-8226 leukemia was more than 100 µM in each case.
